Assay results as given in the kinase profiling compilation of Christmann-Franck et al. (2016).

Experiments:
Test in all cases: split-luciferase competition binding
PDPK1 (human) = PDPK1 (human) (UniProt O15530); settings: compound 10.0 µM
AURKB (human) = AURKB (human) (UniProt Q96GD4); settings: compound 10.0 µM
PRKX (human) = PRKX (human) (UniProt P51817); settings: compound 10.0 µM
PRKCQ (human) = PRKCQ (human) (UniProt Q04759); settings: compound 10.0 µM
AURKC (human) = AURKC (human) (UniProt Q9UQB9); settings: compound 10.0 µM
RPS6KA6 KD1 (human) = RPS6KA6 KD1 (human) (UniProt Q9UK32); settings: compound 10.0 µM
RPS6KA5 KD1 (human) = RPS6KA5 KD1 (human) (UniProt O75582); settings: compound 10.0 µM
SGK2 (human) = SGK2 (human) (UniProt Q9HBY8); settings: compound 10.0 µM
PRKCD (human) = PRKCD (human) (UniProt Q05655); settings: compound 10.0 µM
PRKCI (human) = PRKCI (human) (UniProt P41743); settings: compound 10.0 µM
SGK3 (human) = SGK3 (human) (UniProt Q96BR1); settings: compound 10.0 µM
AKT2 (human) = AKT2 (human) (UniProt P31751); settings: compound 10.0 µM
RPS6KA2 KD1 (human) = RPS6KA2 KD1 (human) (UniProt Q15349); settings: compound 10.0 µM
PRKCE (human) = PRKCE (human) (UniProt Q02156); settings: compound 10.0 µM
RPS6KA3 KD1 (human) = RPS6KA3 KD1 (human) (UniProt P51812); settings: compound 10.0 µM
PRKACB (human) = PRKACB (human) (UniProt P22694); settings: compound 10.0 µM
RPS6KA4 KD1 (human) = RPS6KA4 KD1 (human) (UniProt O75676); settings: compound 10.0 µM
PRKCH (human) = PRKCH (human) (UniProt P24723); settings: compound 10.0 µM
STK32B (human) = STK32B (human) (UniProt Q9NY57); settings: compound 10.0 µM
DMPK (human) = DMPK (human) (UniProt Q09013); settings: compound 10.0 µM
PRKCG (human) = PRKCG (human) (UniProt P05129); settings: compound 10.0 µM
AKT1 (human) = AKT1 (human) (UniProt P31749); settings: compound 10.0 µM
PKN1 (human) = PKN1 (human) (UniProt Q16512); settings: compound 10.0 µM
AURKA (human) = AURKA (human) (UniProt O14965); settings: compound 10.0 µM
RPS6KA1 KD1 (human) = RPS6KA1 KD1 (human) (UniProt Q15418); settings: compound 10.0 µM
PRKACA (mouse) = settings: compound 10.0 µM; accession and sequence are those of the human protein
AKT3 (human) = AKT3 (human) (UniProt Q9Y243); settings: compound 10.0 µM

Sequence of RPS6KA2 KD1 (human) (Q15349 whole entry, looked up): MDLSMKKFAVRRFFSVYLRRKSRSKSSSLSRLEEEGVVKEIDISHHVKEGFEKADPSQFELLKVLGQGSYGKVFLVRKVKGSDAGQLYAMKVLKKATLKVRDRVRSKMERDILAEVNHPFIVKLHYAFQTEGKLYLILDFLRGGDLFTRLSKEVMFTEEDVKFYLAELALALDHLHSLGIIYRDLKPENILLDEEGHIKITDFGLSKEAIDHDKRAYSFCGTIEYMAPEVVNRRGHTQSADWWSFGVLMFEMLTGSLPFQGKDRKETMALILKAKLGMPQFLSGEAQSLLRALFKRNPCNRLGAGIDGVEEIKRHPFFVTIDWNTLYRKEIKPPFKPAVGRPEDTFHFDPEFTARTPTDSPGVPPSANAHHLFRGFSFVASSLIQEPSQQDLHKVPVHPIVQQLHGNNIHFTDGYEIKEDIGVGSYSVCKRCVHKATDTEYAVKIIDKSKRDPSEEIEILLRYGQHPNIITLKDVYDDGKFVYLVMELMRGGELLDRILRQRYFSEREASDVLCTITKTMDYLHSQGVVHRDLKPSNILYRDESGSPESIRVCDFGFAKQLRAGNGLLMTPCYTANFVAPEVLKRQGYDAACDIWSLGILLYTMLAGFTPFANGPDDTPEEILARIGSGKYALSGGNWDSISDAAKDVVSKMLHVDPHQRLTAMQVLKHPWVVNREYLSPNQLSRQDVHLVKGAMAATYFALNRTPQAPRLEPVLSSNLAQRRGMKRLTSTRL
Sequence of PRKCH (human) (P24723 whole entry, looked up): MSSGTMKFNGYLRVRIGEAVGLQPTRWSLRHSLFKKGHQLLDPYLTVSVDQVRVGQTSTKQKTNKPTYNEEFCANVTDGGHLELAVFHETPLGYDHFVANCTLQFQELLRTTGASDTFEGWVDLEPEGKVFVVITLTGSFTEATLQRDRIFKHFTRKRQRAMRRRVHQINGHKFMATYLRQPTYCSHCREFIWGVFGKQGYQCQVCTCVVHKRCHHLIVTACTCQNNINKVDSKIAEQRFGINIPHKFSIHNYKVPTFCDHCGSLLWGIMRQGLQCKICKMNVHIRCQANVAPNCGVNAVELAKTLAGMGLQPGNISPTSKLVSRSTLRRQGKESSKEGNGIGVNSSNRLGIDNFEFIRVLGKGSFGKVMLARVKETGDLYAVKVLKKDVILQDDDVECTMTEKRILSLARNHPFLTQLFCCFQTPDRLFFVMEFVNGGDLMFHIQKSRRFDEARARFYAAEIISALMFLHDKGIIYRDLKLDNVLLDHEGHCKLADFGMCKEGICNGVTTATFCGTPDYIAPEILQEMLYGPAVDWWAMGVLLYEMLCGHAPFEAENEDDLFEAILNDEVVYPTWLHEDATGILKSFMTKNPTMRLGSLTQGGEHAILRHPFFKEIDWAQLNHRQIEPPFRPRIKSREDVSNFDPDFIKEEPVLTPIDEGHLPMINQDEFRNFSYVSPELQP
Sequence of AURKC (human) (Q9UQB9 whole entry, looked up): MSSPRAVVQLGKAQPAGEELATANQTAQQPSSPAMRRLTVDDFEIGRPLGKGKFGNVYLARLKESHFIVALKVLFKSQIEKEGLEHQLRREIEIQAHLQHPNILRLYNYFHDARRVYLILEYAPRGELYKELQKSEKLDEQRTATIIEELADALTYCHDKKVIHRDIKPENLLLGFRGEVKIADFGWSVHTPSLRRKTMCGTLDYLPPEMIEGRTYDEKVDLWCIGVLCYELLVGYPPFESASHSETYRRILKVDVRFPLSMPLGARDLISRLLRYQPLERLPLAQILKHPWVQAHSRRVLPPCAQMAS
Sequence of SGK2 (human) (Q9HBY8 whole entry, looked up): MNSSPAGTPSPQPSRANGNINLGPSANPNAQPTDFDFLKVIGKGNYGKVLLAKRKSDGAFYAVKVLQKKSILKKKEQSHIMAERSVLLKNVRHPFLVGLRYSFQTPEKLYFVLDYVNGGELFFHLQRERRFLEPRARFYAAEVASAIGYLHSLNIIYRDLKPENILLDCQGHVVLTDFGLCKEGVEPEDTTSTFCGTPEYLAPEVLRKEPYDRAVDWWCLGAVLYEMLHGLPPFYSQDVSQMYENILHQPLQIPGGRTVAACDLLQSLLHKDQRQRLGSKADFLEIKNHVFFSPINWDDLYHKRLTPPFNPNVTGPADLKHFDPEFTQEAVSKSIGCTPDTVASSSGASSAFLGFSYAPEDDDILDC
Sequence of RPS6KA1 KD1 (human) (Q15418 whole entry, looked up): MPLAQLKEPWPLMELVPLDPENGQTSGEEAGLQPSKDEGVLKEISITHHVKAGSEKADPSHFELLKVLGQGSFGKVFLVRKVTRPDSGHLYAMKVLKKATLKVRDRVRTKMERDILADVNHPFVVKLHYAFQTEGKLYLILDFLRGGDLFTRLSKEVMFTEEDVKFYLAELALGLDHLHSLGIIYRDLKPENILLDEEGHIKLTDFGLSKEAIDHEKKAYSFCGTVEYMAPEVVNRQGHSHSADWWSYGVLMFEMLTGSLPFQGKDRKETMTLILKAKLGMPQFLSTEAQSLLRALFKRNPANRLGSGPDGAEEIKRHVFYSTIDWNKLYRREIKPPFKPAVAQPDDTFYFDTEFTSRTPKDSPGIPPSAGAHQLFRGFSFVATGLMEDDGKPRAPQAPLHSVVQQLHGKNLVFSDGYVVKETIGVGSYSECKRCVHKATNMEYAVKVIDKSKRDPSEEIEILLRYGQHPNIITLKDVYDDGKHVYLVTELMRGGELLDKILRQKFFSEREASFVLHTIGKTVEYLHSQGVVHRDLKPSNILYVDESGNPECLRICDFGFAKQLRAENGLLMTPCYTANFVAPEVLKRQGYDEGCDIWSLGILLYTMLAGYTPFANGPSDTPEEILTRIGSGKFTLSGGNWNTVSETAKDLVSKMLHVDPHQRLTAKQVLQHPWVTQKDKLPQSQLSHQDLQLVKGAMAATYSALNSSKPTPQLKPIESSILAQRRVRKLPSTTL
Sequence of PRKCI (human) (P41743 whole entry, looked up): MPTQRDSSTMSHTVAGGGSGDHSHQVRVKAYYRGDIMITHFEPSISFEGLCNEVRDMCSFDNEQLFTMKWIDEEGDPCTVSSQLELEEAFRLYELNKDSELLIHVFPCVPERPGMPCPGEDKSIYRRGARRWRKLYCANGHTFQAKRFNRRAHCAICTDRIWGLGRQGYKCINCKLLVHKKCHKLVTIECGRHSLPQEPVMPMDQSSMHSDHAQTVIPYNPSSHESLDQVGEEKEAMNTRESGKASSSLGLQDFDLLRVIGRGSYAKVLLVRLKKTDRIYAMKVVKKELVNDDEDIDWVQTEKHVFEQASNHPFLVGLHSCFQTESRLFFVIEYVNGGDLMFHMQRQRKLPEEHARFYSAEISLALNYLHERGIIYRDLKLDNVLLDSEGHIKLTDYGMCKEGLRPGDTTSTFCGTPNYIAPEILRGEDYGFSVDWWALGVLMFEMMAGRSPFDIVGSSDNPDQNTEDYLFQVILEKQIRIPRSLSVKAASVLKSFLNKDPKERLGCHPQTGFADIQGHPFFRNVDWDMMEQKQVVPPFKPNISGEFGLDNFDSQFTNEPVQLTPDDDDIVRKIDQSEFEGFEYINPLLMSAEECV
Sequence of STK32B (human) (Q9NY57 whole entry, looked up): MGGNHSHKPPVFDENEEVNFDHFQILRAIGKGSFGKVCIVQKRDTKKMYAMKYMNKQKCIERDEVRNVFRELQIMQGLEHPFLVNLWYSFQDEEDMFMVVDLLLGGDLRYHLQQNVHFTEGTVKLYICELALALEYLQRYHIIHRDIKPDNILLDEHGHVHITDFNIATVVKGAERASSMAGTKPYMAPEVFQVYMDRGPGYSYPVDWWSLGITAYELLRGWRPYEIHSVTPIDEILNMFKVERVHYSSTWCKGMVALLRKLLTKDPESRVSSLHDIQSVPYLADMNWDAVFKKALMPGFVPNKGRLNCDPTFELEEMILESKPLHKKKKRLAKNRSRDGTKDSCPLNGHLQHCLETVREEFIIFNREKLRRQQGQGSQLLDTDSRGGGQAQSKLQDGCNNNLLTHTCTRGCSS
Sequence of RPS6KA6 KD1 (human) (Q9UK32 whole entry, looked up): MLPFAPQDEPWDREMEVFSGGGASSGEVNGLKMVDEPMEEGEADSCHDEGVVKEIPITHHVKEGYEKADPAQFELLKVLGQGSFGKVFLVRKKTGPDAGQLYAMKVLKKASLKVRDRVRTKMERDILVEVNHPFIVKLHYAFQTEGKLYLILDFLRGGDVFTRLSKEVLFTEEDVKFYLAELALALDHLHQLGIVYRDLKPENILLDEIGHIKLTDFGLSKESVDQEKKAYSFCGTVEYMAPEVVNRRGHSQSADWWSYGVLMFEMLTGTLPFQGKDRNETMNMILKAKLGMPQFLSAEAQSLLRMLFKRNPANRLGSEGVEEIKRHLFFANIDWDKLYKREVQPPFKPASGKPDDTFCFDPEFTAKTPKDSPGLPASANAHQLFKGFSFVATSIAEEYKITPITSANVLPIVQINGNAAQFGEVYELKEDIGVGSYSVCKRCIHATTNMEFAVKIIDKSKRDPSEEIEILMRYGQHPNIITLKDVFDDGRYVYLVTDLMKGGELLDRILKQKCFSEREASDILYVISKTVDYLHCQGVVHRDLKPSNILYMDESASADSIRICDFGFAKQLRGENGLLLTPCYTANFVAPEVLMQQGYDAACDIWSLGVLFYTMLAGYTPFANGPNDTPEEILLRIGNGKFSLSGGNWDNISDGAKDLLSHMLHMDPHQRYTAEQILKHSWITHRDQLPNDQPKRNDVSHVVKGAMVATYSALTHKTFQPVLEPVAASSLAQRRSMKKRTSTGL
Sequence of AURKA (human) (O14965 whole entry, looked up): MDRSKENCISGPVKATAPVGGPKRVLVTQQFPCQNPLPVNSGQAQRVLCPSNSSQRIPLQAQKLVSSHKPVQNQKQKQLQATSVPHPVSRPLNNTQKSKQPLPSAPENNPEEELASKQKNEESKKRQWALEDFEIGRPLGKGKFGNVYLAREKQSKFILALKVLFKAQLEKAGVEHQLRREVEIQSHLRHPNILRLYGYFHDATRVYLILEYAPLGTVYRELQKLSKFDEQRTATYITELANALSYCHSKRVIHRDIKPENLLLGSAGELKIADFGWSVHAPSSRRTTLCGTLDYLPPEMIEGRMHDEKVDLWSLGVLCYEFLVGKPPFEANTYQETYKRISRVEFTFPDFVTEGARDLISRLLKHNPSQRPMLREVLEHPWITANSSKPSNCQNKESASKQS

## O=c1cc(N2CCOCC2)oc2c(-c3ccccc3)cccc12
PDPK1 (human)
  inhibition: 0%
AURKB (human)
  inhibition: 0%
PRKX (human)
  inhibition: 0%
PRKCQ (human)
  inhibition: 0%
AURKC (human)
  inhibition: 0%
RPS6KA6 KD1 (human)
  inhibition: 0%
RPS6KA5 KD1 (human)
  inhibition: 4%
SGK2 (human)
  inhibition: 0%
PRKCD (human)
  inhibition: 0%
PRKCI (human)
  inhibition: 0%
SGK3 (human)
  inhibition: 0%
AKT2 (human)
  inhibition: 0%
RPS6KA2 KD1 (human)
  inhibition: 0%
PRKCE (human)
  inhibition: 0%
RPS6KA3 KD1 (human)
  inhibition: 0%
PRKACB (human)
  inhibition: 0%
RPS6KA4 KD1 (human)
  inhibition: 0%
PRKCH (human)
  inhibition: 0%
STK32B (human)
  inhibition: 0%
DMPK (human)
  inhibition: 0%
PRKCG (human)
  inhibition: 0%
AKT1 (human)
  inhibition: 0%
PKN1 (human)
  inhibition: 0%
AURKA (human)
  inhibition: 0%
RPS6KA1 KD1 (human)
  inhibition: 16%
PRKACA (mouse)
  inhibition: 0%
AKT3 (human)
  inhibition: 0%

## NC(=O)c1sc(-c2ccsc2)cc1N
PDPK1 (human)
  inhibition: 0%
AURKB (human)
  inhibition: 0%
PRKX (human)
  inhibition: 0%
PRKCQ (human)
  inhibition: 0%
AURKC (human)
  inhibition: 0%
RPS6KA6 KD1 (human)
  inhibition: 24%
RPS6KA5 KD1 (human)
  inhibition: 0%
SGK2 (human)
  inhibition: 0%
PRKCD (human)
  inhibition: 0%
PRKCI (human)
  inhibition: 0%
SGK3 (human)
  inhibition: 0%
AKT2 (human)
  inhibition: 0%
RPS6KA2 KD1 (human)
  inhibition: 0%
PRKCE (human)
  inhibition: 0%
RPS6KA3 KD1 (human)
  inhibition: 0%
PRKACB (human)
  inhibition: 2%
RPS6KA4 KD1 (human)
  inhibition: 0%
PRKCH (human)
  inhibition: 11%
STK32B (human)
  inhibition: 0%
DMPK (human)
  inhibition: 0%
PRKCG (human)
  inhibition: 0%
AKT1 (human)
  inhibition: 0%
PKN1 (human)
  inhibition: 0%
AURKA (human)
  inhibition: 0%
RPS6KA1 KD1 (human)
  inhibition: 0%
PRKACA (mouse)
  inhibition: 0%
AKT3 (human)
  inhibition: 0%

## O=C(Nc1cc(C(F)(F)F)cc(C(F)(F)F)c1)c1cc(Cl)ccc1O
PDPK1 (human)
  inhibition: 0%
AURKB (human)
  inhibition: 9%
PRKX (human)
  inhibition: 4%
PRKCQ (human)
  inhibition: 2%
AURKC (human)
  inhibition: 0%
RPS6KA6 KD1 (human)
  inhibition: 0%
RPS6KA5 KD1 (human)
  inhibition: 0%
SGK2 (human)
  inhibition: 0%
PRKCD (human)
  inhibition: 0%
PRKCI (human)
  inhibition: 0%
SGK3 (human)
  inhibition: 1%
AKT2 (human)
  inhibition: 0%
RPS6KA2 KD1 (human)
  inhibition: 0%
PRKCE (human)
  inhibition: 11%
RPS6KA3 KD1 (human)
  inhibition: 0%
PRKACB (human)
  inhibition: 1%
RPS6KA4 KD1 (human)
  inhibition: 0%
PRKCH (human)
  inhibition: 8%
STK32B (human)
  inhibition: 11%
DMPK (human)
  inhibition: 3%
PRKCG (human)
  inhibition: 6%
AKT1 (human)
  inhibition: 0%
PKN1 (human)
  inhibition: 0%
AURKA (human)
  inhibition: 0%
RPS6KA1 KD1 (human)
  inhibition: 1%
PRKACA (mouse)
  inhibition: 0%
AKT3 (human)
  inhibition: 0%

## Cc1ccc(NC(=O)c2cccc(N(C)C)c2)cc1NC(=O)c1ccc(O)cc1
PDPK1 (human)
  inhibition: 0%
AURKB (human)
  inhibition: 0%
PRKX (human)
  inhibition: 0%
PRKCQ (human)
  inhibition: 0%
AURKC (human)
  inhibition: 8%
RPS6KA6 KD1 (human)
  inhibition: 0%
RPS6KA5 KD1 (human)
  inhibition: 0%
SGK2 (human)
  inhibition: 0%
PRKCD (human)
  inhibition: 1%
PRKCI (human)
  inhibition: 0%
SGK3 (human)
  inhibition: 0%
AKT2 (human)
  inhibition: 0%
RPS6KA2 KD1 (human)
  inhibition: 0%
PRKCE (human)
  inhibition: 0%
RPS6KA3 KD1 (human)
  inhibition: 0%
PRKACB (human)
  inhibition: 0%
RPS6KA4 KD1 (human)
  inhibition: 0%
PRKCH (human)
  inhibition: 0%
STK32B (human)
  inhibition: 0%
DMPK (human)
  inhibition: 0%
PRKCG (human)
  inhibition: 0%
AKT1 (human)
  inhibition: 0%
PKN1 (human)
  inhibition: 0%
AURKA (human)
  inhibition: 3%
RPS6KA1 KD1 (human)
  inhibition: 0%
PRKACA (mouse)
  inhibition: 7%
AKT3 (human)
  inhibition: 0%

## COc1nccc(-c2c(-c3ccc(F)cc3)ncn2[C@H]2CC[C@H](O)CC2)n1
PDPK1 (human)
  inhibition: 0%
AURKB (human)
  inhibition: 6%
PRKX (human)
  inhibition: 11%
PRKCQ (human)
  inhibition: 6%
AURKC (human)
  inhibition: 0%
RPS6KA6 KD1 (human)
  inhibition: 0%
RPS6KA5 KD1 (human)
  inhibition: 0%
SGK2 (human)
  inhibition: 0%
PRKCD (human)
  inhibition: 6%
PRKCI (human)
  inhibition: 0%
SGK3 (human)
  inhibition: 0%
AKT2 (human)
  inhibition: 0%
RPS6KA2 KD1 (human)
  inhibition: 0%
PRKCE (human)
  inhibition: 0%
RPS6KA3 KD1 (human)
  inhibition: 0%
PRKACB (human)
  inhibition: 1%
RPS6KA4 KD1 (human)
  inhibition: 0%
PRKCH (human)
  inhibition: 0%
STK32B (human)
  inhibition: 40%
DMPK (human)
  inhibition: 0%
PRKCG (human)
  inhibition: 9%
AKT1 (human)
  inhibition: 0%
PKN1 (human)
  inhibition: 12%
AURKA (human)
  inhibition: 4%
RPS6KA1 KD1 (human)
  inhibition: 0%
PRKACA (mouse)
  inhibition: 0%
AKT3 (human)
  inhibition: 0%

## O=C1Nc2ccc(I)cc2/C1=C/c1cc(Br)c(O)c(Br)c1
PDPK1 (human)
  inhibition: 0%
AURKB (human)
  inhibition: 26%
PRKX (human)
  inhibition: 11%
PRKCQ (human)
  inhibition: 0%
AURKC (human)
  inhibition: 0%
RPS6KA6 KD1 (human)
  inhibition: 19%
RPS6KA5 KD1 (human)
  inhibition: 13%
SGK2 (human)
  inhibition: 10%
PRKCD (human)
  inhibition: 2%
PRKCI (human)
  inhibition: 0%
SGK3 (human)
  inhibition: 0%
AKT2 (human)
  inhibition: 0%
RPS6KA2 KD1 (human)
  inhibition: 14%
PRKCE (human)
  inhibition: 10%
RPS6KA3 KD1 (human)
  inhibition: 12%
PRKACB (human)
  inhibition: 11%
RPS6KA4 KD1 (human)
  inhibition: 4%
PRKCH (human)
  inhibition: 10%
STK32B (human)
  inhibition: 0%
DMPK (human)
  inhibition: 11%
PRKCG (human)
  inhibition: 5%
AKT1 (human)
  inhibition: 19%
PKN1 (human)
  inhibition: 4%
AURKA (human)
  inhibition: 0%
RPS6KA1 KD1 (human)
  inhibition: 23%
PRKACA (mouse)
  inhibition: 9%
AKT3 (human)
  inhibition: 0%

## CC(C)[C@H](CO)Nc1nc(Nc2cccc(Cl)c2)c2ncn(C(C)C)c2n1
PDPK1 (human)
  inhibition: 0%
AURKB (human)
  inhibition: 0%
PRKX (human)
  inhibition: 0%
PRKCQ (human)
  inhibition: 0%
AURKC (human)
  inhibition: 0%
RPS6KA6 KD1 (human)
  inhibition: 19%
RPS6KA5 KD1 (human)
  inhibition: 2%
SGK2 (human)
  inhibition: 0%
PRKCD (human)
  inhibition: 0%
PRKCI (human)
  inhibition: 0%
SGK3 (human)
  inhibition: 0%
AKT2 (human)
  inhibition: 0%
RPS6KA2 KD1 (human)
  inhibition: 48%
PRKCE (human)
  inhibition: 2%
RPS6KA3 KD1 (human)
  inhibition: 41%
PRKACB (human)
  inhibition: 0%
RPS6KA4 KD1 (human)
  inhibition: 12%
PRKCH (human)
  inhibition: 0%
STK32B (human)
  inhibition: 4%
DMPK (human)
  inhibition: 11%
PRKCG (human)
  inhibition: 0%
AKT1 (human)
  inhibition: 0%
PKN1 (human)
  inhibition: 0%
AURKA (human)
  inhibition: 0%
RPS6KA1 KD1 (human)
  inhibition: 65%
PRKACA (mouse)
  inhibition: 7%
AKT3 (human)
  inhibition: 0%

## O=C1NC(=O)C(c2ccccc2[N+](=O)[O-])=C1Nc1ccc(O)c(Cl)c1
PDPK1 (human)
  inhibition: 0%
AURKB (human)
  inhibition: 12%
PRKX (human)
  inhibition: 2%
PRKCQ (human)
  inhibition: 0%
AURKC (human)
  inhibition: 23%
RPS6KA6 KD1 (human)
  inhibition: 9%
RPS6KA5 KD1 (human)
  inhibition: 0%
SGK2 (human)
  inhibition: 0%
PRKCD (human)
  inhibition: 9%
PRKCI (human)
  inhibition: 0%
SGK3 (human)
  inhibition: 0%
AKT2 (human)
  inhibition: 0%
RPS6KA2 KD1 (human)
  inhibition: 0%
PRKCE (human)
  inhibition: 4%
RPS6KA3 KD1 (human)
  inhibition: 0%
PRKACB (human)
  inhibition: 5%
RPS6KA4 KD1 (human)
  inhibition: 0%
PRKCH (human)
  inhibition: 2%
STK32B (human)
  inhibition: 0%
DMPK (human)
  inhibition: 0%
PRKCG (human)
  inhibition: 0%
AKT1 (human)
  inhibition: 0%
PKN1 (human)
  inhibition: 0%
AURKA (human)
  inhibition: 6%
RPS6KA1 KD1 (human)
  inhibition: 7%
PRKACA (mouse)
  inhibition: 0%
AKT3 (human)
  inhibition: 0%

## Fc1ccc(Cl)cc1-c1nc(Nc2ccncc2)c2nccnc2n1
PDPK1 (human)
  inhibition: 12%
AURKB (human)
  inhibition: 12%
PRKX (human)
  inhibition: 12%
PRKCQ (human)
  inhibition: 51%
AURKC (human)
  inhibition: 8%
RPS6KA6 KD1 (human)
  inhibition: 13%
RPS6KA5 KD1 (human)
  inhibition: 24%
SGK2 (human)
  inhibition: 22%
PRKCD (human)
  inhibition: 10%
PRKCI (human)
  inhibition: 8%
SGK3 (human)
  inhibition: 14%
AKT2 (human)
  inhibition: 26%
RPS6KA2 KD1 (human)
  inhibition: 5%
PRKCE (human)
  inhibition: 27%
RPS6KA3 KD1 (human)
  inhibition: 12%
PRKACB (human)
  inhibition: 19%
RPS6KA4 KD1 (human)
  inhibition: 8%
PRKCH (human)
  inhibition: 43%
STK32B (human)
  inhibition: 15%
DMPK (human)
  inhibition: 18%
PRKCG (human)
  inhibition: 10%
AKT1 (human)
  inhibition: 39%
PKN1 (human)
  inhibition: 0%
AURKA (human)
  inhibition: 0%
RPS6KA1 KD1 (human)
  inhibition: 18%
PRKACA (mouse)
  inhibition: 21%
AKT3 (human)
  inhibition: 35%
